The test system of one experiment is Ca2+ flux in thymocytes. Kind of experiment: Calcium flux assay after TCR cross-linking. Type of experiment: cell-based, mouse. To be noted: wild type thymocytes; to levels of Pik3cg−/−;pik3cd−/− counterparts. On the procedure:
Thymocytes or lymphocytes were preloaded with Fluo-4 AM (Molecular Probes, Eugene, OR) at 5 μg/mL for 30 minutes at 37° C., labeled with anti-CD4-APC conjugate (BD Biosciences) to permit gating on this T-cell subset during analysis, and finally washed and resuspended (2×10^6/mL) in DMEM and 10% FCS. After a baseline was established at quiescence, Ca^2+ flux was induced by the addition in tandem of anti-CD3e (hamster antimouse antibody; BD Biosciences) and the anti-hamster IgG polyclonal antibody (Jackson ImmunoResearch, West Grove, PA) for cross-linking. The resultant flux in Ca^2+ was measured for 5 minutes by flow cytometry, and total flux was established by the addition of ionomycin (0.5 μg/mL). Drug inhibition of Ca^2+ flux was measured after 30 minute pre-incubation with CAL-130 at room temperature of dye loaded cells. Percentage overall change in Ca^2+ flux is reported as (Ca^2+ fluxpeak−Ca^2+ fluxbaseline/Ca^2+fluxionomycin−Ca^2+fluxbaseline)×100.
On the technique in general: Calcium flux is commonly read through the fluorescence of an indicator in the cells.

For experiment [1], the system named is primary human T-ALL tumor cells. Kind of experiment: Akt phosphorylation in primary T-ALL samples (immunoblot). Type of experiment: cell-based. To be noted: 6 hours of treatment. On the procedure:
Cell lysates (from cell lines or thymocytes) were prepared on ice in M-PER Mammalian Protein Extraction reagent (Pierce) containing a cocktail of protease and phosphatase inhibitors (Swat et al., 2006). Equal amounts of total protein from lysates were subjected to SDS-PAGE, transferred to PVDF membrane (Immobilon-P, Millipore), and membranes probed by overnight incubation with appropriate primary antibodies. Bound antibodies were visualized with HRP-conjugated secondary antibodies and ECL chemistry (SuperPico West, Pierce).
(Immunoblotting shows a protein as a band on a membrane.)

Regarding `Cc1ccccc1-n1c(C(C)Nc2nc(N)nc3nc[nH]c23)nc2cccc(C)c2c1=O` (centres unmarked) [CAL-130], the “calcium flux in response to TCR cross-linking” value with Ca2+ flux in thymocytes is on record as “attenuated”. Moreover, in experiment [1], the Akt phosphorylation result is reported as “reduction”.

Values taken from US11969428B2, “Methods and pharmaceutical compositions for treating lymphoid malignancy” (priority 2011, dated 2024).
